Our source for the IC50 values is US6686350B1, “Cell adhesion inhibitors” (Biogen, Inc., priority 1996, dated 2004).

In this assay the target is T1, VLA-4 (Homo sapiens, UniProt P05556+P13612).
T1 construct: endogenous in cells; host or cells: Jurkat cells
T1 sequence (P13612 34-1032): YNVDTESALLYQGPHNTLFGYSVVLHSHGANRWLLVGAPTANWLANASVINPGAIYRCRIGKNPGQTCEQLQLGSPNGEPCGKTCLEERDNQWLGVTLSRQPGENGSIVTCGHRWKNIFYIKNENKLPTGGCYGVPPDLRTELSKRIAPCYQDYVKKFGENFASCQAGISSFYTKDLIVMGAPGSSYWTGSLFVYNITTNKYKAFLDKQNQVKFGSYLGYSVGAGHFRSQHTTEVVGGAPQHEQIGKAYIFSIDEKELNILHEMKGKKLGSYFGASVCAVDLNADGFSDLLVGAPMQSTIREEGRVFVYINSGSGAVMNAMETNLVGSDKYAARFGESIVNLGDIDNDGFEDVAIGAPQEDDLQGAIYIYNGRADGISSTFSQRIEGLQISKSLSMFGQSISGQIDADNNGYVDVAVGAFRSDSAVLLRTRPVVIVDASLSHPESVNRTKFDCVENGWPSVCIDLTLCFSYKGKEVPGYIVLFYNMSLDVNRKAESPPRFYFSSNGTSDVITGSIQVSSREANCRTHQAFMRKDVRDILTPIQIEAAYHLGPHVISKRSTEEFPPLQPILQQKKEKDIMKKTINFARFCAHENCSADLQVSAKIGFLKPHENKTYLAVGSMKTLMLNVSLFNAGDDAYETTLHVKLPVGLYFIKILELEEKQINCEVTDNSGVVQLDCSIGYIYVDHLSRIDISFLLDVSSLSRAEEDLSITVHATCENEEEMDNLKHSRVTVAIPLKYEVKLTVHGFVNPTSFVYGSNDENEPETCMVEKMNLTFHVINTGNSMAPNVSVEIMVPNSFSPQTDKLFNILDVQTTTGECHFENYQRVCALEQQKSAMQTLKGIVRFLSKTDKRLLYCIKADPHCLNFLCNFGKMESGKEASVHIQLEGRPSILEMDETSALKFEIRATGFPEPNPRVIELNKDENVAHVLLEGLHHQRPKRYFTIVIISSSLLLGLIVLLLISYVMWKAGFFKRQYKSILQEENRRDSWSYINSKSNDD
T1 sequence (P05556 21-798): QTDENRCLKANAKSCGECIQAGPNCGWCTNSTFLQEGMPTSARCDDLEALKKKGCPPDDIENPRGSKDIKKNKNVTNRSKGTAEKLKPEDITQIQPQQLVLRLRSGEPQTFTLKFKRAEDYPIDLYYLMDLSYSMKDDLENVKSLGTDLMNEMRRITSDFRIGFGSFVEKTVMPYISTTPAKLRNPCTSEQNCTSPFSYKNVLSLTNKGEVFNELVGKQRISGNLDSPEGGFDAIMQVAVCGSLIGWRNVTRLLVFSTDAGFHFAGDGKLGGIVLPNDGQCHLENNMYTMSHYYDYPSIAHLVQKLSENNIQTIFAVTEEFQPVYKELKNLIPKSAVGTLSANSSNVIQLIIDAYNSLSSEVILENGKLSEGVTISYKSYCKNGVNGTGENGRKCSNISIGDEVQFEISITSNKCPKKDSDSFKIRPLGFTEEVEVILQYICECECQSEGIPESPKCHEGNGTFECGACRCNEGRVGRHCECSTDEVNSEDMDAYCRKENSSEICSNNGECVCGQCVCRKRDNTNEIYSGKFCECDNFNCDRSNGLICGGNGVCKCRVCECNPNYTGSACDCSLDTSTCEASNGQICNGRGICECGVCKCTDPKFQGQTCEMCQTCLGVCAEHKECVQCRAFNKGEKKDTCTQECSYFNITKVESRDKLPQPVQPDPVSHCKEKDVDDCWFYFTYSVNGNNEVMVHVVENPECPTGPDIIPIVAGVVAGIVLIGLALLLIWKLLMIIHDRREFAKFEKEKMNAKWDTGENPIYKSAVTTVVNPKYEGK
Kind of assay: VLA-4 direct binding assay (VCAM-IgG alkaline phosphatase conjugate binding to Jurkat cells). Conditions: Table 1, Structure-Activity; assay and unit inferred; read-out: Act. An excerpt:
A direct binding assay may also be employed to quantitate the inhibitory activity of the compounds of this invention. (“DBA”) In direct binding assays, for example, a VCAM-IgG fusion protein containing the first two immunoglobulin domains of VCAM (D1D2) attached above the hinge region of an IgG1 molecule (“VCAM 2D-IgG”), is conjugated to a marker enzyme, such as alkaline phosphatase (“AP”). The synthesis of this VCAM-IgG fusion is described in PCT publication WO 90/13300, the disclosure of which is herein incorporated by reference. The conjugation of that fusion to a marker enzyme can be achieved by cross-linking methods well-known in the art.
The VCAM-IgG enzyme conjugate is then placed in the wells of a multi-well filtration plate, such as that contained in the Millipore Multiscreen Assay System (Millipore Corp., Bedford, Mass.). Varying concentrations of the test inhibitory compound are then added to the wells followed by addition of VLA-4-expressing cells. The cells, compound and VCAM-IgG enzyme conjugate are mixed together and allowed to incubate at room temperature.
Following incubation, the wells are vacuum drained, leaving behind the cells and any bound VCAM. Quantitation of bound VCAM is determined by adding an appropriate calorimetric substrate for the enzyme conjugated to VCAM-IgG and determining the amount of reaction product. Decreased reaction product indicates increased binding inhibitory activity. The protocol is described more specifically below:
1. Block a 96 well Millipore Multiscreen Assay System filtration plate^1 with 200:l/well of blocking buffer (1×Phosphate Buffered Saline, 0.1%Tween 20, 1%BSA) for at least 1 hour at room temperature.
2. Drain the plate with the vacuum manifold, and wash with 200 μl/well of assay buffer (Tris Buffered Saline, 0.1% BSA, 2 mM glucose, 10 mM HEPES, pH 7.5) draining the plate in between. Repeat twice. Then blot the plate bottom on paper to remove excess buffer.
3. Prepare a 4 μg/ml VCAMIg-AP solution (Alkaline phosphatase coupled to VCAMIg) in assay buffer and filter with a 0.2:low protein binding syringe filter (Gelman Sciences #4454). From this stock, prepare a 0.4 μg/ml working solution of VCAMIg-AP in assay buffer. Add 25:l of 0.4 μg/ml VCAMIg-AP to every well.
5. Prepare dilutions of compounds to be tested in assay buffer. Concentrations should be 4× the desired final concentration and run in triplicate. Add 25 μl of the compound dilutions to designated wells.
7. Jurkat cells are centrifuged to remove cell culture media and washed once in assay buffer. Resuspend the washed Jurkat cells to a concentration of 8×10^6/ml in assay buffer containing 2 mM MnCl2. Pipeting the mixture up and down to ensure a uniform cell suspension. Add 50:l of cell suspension to each well except the NSB wells.
8. Gently tap the sides of the plate to mix well contents. Incubate the plate for 60 minutes at room temperature (RT).
9. Place the plate on the vacuum manifold to drain the well contents. Wash twice with 100 μl/well of wash buffer (assay buffer containing 1 mM MnCl2). Drain the plate and blot on paper towels.
10. Add 10 mg/ml of 4-Nitro phenyl phosphate to Substrate buffer (0.1M glycine, 1 mM ZnCl2, 1 mM MgCl2, pH 10.5). Add 100 μl/well and incubate for exactly 30 minutes at RT.
11. To stop the reaction, add 100 μl/well of 3N NaOH.
12. Read the 96-well plate in a Molecular Devices ELISA platereader at 405 nm. Analyze data with SoftMax software.
Consider `COc1cccc(C(=O)N(CCC(=O)O)CC(=O)N(CCC(C)C)CC(=O)Nc2ccc3c(c2)C(=O)CCCC3)c1` [AX3], for which the IC50 was found to be 15.3 µM. The figure for `COc1cccc(C(=O)N(CCC(=O)O)CC(=O)N(CCC(C)C)CC(=O)Nc2ccc(-n3cnc(Cl)c3Cl)cc2)c1` [AX4] is 15.2 µM; for `COc1cccc(C(=O)N(CCC(=O)O)CC(=O)N(CCC(C)C)CC(=O)Nc2ccc(-c3nnc(-c4ccccc4)o3)cc2)c1` [AX5] it is 0.035 µM. As to `CSCCCN(CC(=O)Nc1ccccc1)C(=O)CN(CCC(=O)O)C(=O)c1ccccc1` [AX6], the IC50 was determined as 13.5 µM. For `COc1ccc(C(=O)N(CCC(=O)O)CC(=O)N(CCC(C)C)CC(=O)Nc2ccccc2)cc1` [AX7], the IC50 turned out to be 11.5 µM. As for `COc1cccc(C(=O)N(CCC(=O)O)CC(=O)N(CCC(C)C)CC(=O)Nc2ccc(N3CCOCC3)c(Cl)c2)c1` [AX9], the IC50 was found to be 7.38 µM. For the molecule `CC(C)CCN(CC(=O)Nc1ccccc1)C(=O)CN(CCC(=O)O)C(=O)c1ccccc1` [AX12], the IC50 was 4.12 µM.

Turning to `COc1cccc(C(=O)N(CCC(=O)O)CC(=O)N(CCC(C)C)CC(=O)Nc2cccc(OCCOc3ccccc3)c2)c1` [AX13], the IC50 was determined as 3.16 µM.

Take `COc1cccc(C(=O)N(CCC(=O)O)CC(=O)N(CCC(C)C)CC(=O)Nc2cccc(C(=O)CC(=O)Nc3nccs3)c2)c1` [AX15]: the IC50 was 2.41 µM. The same measure for `COc1cccc(C(=O)N(CCC(=O)O)CC(=O)N(CCC(C)C)CC(=O)Nc2ccc(NC(=O)c3cc4ccccc4cn3)cc2)c1` [AX16]: 2.84 µM; for `COc1cccc(C(=O)N(CCC(=O)O)CC(=O)N(CCC(C)C)CC(=O)Nc2ccccc2)c1` [AX18]: 1.4 µM; for `COc1cccc(C(=O)N(CCC(=O)O)CC(=O)N(CCC(C)C)CC(=O)Nc2ccc(OCC(=O)Nc3ccccc3)cc2)c1` [AX19]: 6.19 µM. The figure for `COc1cccc(C(=O)N(CCC(=O)O)CC(=O)N(CCC(C)C)CC(=O)Nc2ccc(CC(=O)N3CCc4ccccc43)cc2)c1` [AX21] is 0.761 µM; for `Cc1ccccc1NC(=O)Nc1ccc(NC(=O)CN(CCC(C)C)C(=O)CN(CCC(=O)O)C(=O)CN2CCCCC2)cc1` [AX22] it is 0.636 µM. The same measure for `COc1cccc(C(=O)N(CCC(=O)O)CC(=O)N(CCC(C)C)CC(=O)Nc2ccc(C(=O)CC(=O)Nc3ccccc3Cl)cc2)c1` [AX23]: 0.58 µM. Take `CC(C)CN(CC(=O)Nc1ccc(NC(=O)Nc2ccccc2)cc1)C(=O)CN(CCC(=O)O)C(=O)Cc1ccccc1` [AX24]: the IC50 was 0.3 µM. The same measure for `Cc1ccccc1NC(=O)Nc1ccc(NC(=O)CN(CCC(C)C)C(=O)CN(CCC(=O)O)C(=O)COc2ccccc2)cc1` [AX25]: 0.246 µM; for `COc1cccc(C(=O)N(CCC(=O)O)CC(=O)N(CCC(C)C)CC(=O)Nc2ccc(NC(=O)c3c[nH]c4ccccc34)cc2)c1` [AX26]: 0.24 µM. The same measure for `CSCCCN(CC(=O)Nc1ccc(NC(=O)Nc2ccccc2)cc1)C(=O)CN(CCC(=O)O)C(=O)c1ccccc1` [AX27]: 0.2 µM; for `CC(C)CN(CC(=O)Nc1ccc(NC(=O)Nc2ccccc2)cc1)C(=O)CN(CCC(=O)O)C(=O)c1ccccc1` [AX28]: 0.15 µM. The same measure for `Cc1ccccc1NC(=O)Nc1ccc(NC(=O)CN(CCC(C)C)C(=O)CN(CCC(=O)O)C(=O)C2CCCCC2)cc1` [AX29]: 0.89 µM; for `CC(C)CCN(CC(=O)Nc1ccc(NC(=O)Nc2ccccc2)cc1)C(=O)CN(CCC(=O)O)C(=O)c1ccccc1` [AX33]: 0.095 µM; for `Cc1ccccc1NC(=O)Nc1ccc(NC(=O)CN(CCC(C)C)C(=O)CN(CCC(=O)O)C(=O)COc2ccccc2)cc1` [AX34]: 0.092 µM. `Cc1ccccc1NC(=O)Nc1ccc(NC(=O)[C@@H]2CCCN2C(=O)CN(CCC(=O)O)C(=O)c2ccccc2)cc1` [AX35]: the IC50 is 0.085 µM. The figure for `Cc1ccccc1NC(=O)Nc1ccc(NC(=O)CN(CCC(C)C)C(=O)CN(CCC(=O)O)C(=O)CBr)cc1` [AX36] is 0.0633 µM.

For `Cc1ccccc1NC(=O)Nc1ccc(NC(=O)CN(CCC(C)C)C(=O)CN(CCC(=O)O)C(=O)N2CCOCC2)cc1` [AX37], the IC50 amounted to 0.0605 µM. On to `Cc1ccccc1NC(=O)Nc1ccc(NC(=O)CN(CCC(=O)O)C(=O)CN(CCC(=O)O)C(=O)c2ccccc2)cc1` [AX38], for which the IC50 turned out to be 0.06 µM. Turning to `Cc1ccccc1NC(=O)Nc1ccc(NC(=O)[C@@H]2CSCN2C(=O)CN(CCC(=O)O)C(=O)c2ccccc2)cc1` [AX39], the IC50 amounted to 0.06 µM. As to `Cc1ccccc1NC(=O)Nc1ccc(NC(=O)CN(CCC(C)C)C(=O)CN(CCC(=O)O)C(=O)CN2CCOCC2)cc1` [AX42], the IC50 turned out to be 0.052 µM. Consider `Cc1c(C(=O)Nc2ccc3c(c2)C(=O)N(CCC(=O)O)CC(=O)N3C)c(=O)n(-c2ccccc2)n1C` [BX6], for which the IC50 came out at 15.4 µM. For the molecule `CN1C(=O)CN(CCC(=O)O)C(=O)c2cc(NC(=O)Cc3ccc(NC(=O)Cc4c[nH]c5ccccc45)cc3)ccc21` [BX11], the IC50 was 9.05 µM.

Regarding `CN1C(=O)CN(CCC(=O)O)C(=O)c2cc(NC(=O)Cc3ccc(NC(=O)c4ccco4)cc3)ccc21` [BX12], the IC50 turned out to be 6.1 µM. The same measure for `CC1=NN(c2ccc(C(=O)Nc3ccc4c(c3)C(=O)N(CCC(=O)O)CC(=O)N4C)cc2)C(=O)C1` [BX13]: 5.87 µM; for `Cc1ccccc1NC(=O)Nc1ccc(CC(=O)Nc2ccc3c(c2)C(=O)N(CCCCC(=O)O)CC(=O)N3C)cc1` [BX15]: 5.13 µM.

As for `Cc1ccccc1NC(=O)Nc1ccc(CC(=O)NCc2ccc3c(c2)C(=O)N(CCC(=O)O)CC(=O)N3C)cc1` [BX16], the IC50 is 5.12 µM.

Take `Cc1ccccc1NC(=O)Nc1ccc(NC(=O)c2ccc3c(c2)C(=O)N(CCC(=O)O)CC(=O)N3C)cc1` [BX17]: the IC50 was determined as 0.977 µM. The same measure for `Cc1ccccc1NC(=O)Nc1ccc(CNC(=O)c2ccc3c(c2)CN(C)C(=O)C(CC(=O)O)N3)cc1` (centres unmarked) [BX18]: 4.43 µM; for `Cc1ccccc1NC(=O)Nc1ccc(CC(=O)N(C)c2ccc3c(c2)C(=O)N(CCC(=O)O)CC(=O)N3C)cc1` [BX23]: 3.24 µM.

With `Cc1ccccc1NC(=O)Nc1ccc(C(=O)NCc2ccc3c(c2)C(=O)N(CCC(=O)O)CC(=O)N3C)cc1` [BX29], the IC50 is 0.825 µM. On to `CN1C(=O)CN(CCC(=O)O)C(=O)c2cc(NC(=O)Cc3ccc(NC(=O)Nc4ccccc4)cc3)ccc21` [BX32], for which the IC50 is 0.959 µM. As to `Cc1ccccc1NC(=O)Nc1ccc(NC(=O)Cc2ccc3c(c2)C(=O)N(CCC(=O)O)CC(=O)N3C)cc1` [BX33], the IC50 was 0.886 µM. As for `CN1C(=O)CN(CCC(=O)O)C(=O)c2cc(NC(=O)Cc3ccc(NC(=O)Nc4ccccc4Cl)cc3)ccc21` [BX34], the IC50 is 0.723 µM. The figure for `Cc1ccccc1NC(=O)Nc1ccc(NC(=O)c2ccc3c(c2)NC(CC(=O)O)C(=O)N(C)C3)cc1` (centres unmarked) [BX36] is 0.646 µM. The same measure for `Cc1ccccc1NC(=O)Nc1ccc(CC(=O)Nc2cc3c(cc2Cl)N(C)C(=O)CN(CCC(=O)O)C3=O)cc1` [BX37]: 0.643 µM. The same measure for `Cc1ccccc1NC(=O)Nc1ccc(CC(=O)Nc2ccc3c(c2)C(=O)N(CCC(=O)O)C(C)C(=O)N3C)cc1` (centres unmarked) [BX38]: 0.55 µM. As for `Cc1ccccc1NC(=O)Nc1ccc(CC(=O)Nc2ccc3c(c2)C(=O)N(CCC(=O)O)CC(=O)N3CCC(=O)O)cc1` [BX39], the IC50 was 0.48 µM. The same measure for `Cc1ccccc1NC(=O)Nc1ccc(CC(=O)Nc2ccc3c(c2)C(=O)N(CCC(=O)O)CC(=O)N3C2CCCCC2)cc1` [BX40]: 0.438 µM; for `Cc1ccccc1NC(=O)Nc1ccc(CC(=O)Nc2ccc3c(c2)C(=O)N(C)CC(=O)N3CCC(=O)O)cc1` [BX42]: 0.326 µM. The figure for `Cc1ccccc1NC(=O)Nc1ccc(CC(=O)Nc2ccc3c(c2)C(=O)N(CCC(=O)O)CC(=O)N3C2CCN(Cc3ccccc3)CC2)cc1` [BX43] is 0.273 µM; for `Cc1ccccc1NC(=O)Nc1ccc(CC(=O)Nc2ccc3c(c2)C(=O)N(CCC(=O)O)CC(=O)N3C)cc1` [BX44] it is 0.257 µM.
